Assay results published in ChEMBL document CHEMBL1201862, “PubChem BioAssay data set” (2004).
Active and inactive are the calls of the source.

Assays:
[1] = NIH3T3 cell viability loss – ATP luminescence, mouse fibroblasts, counter-screen, dose response (AID 2010); assay type: functional, cell-based;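 note: cells exposed to compound for about 90 hours before reading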
[2] = target: Sphingosine 1-phosphate receptor 3 (Homo sapiens, UniProt Q99500); assay: Dose response cell-based high throughput screening assay for antagonists of the Sphingosine 1-Phosphate Receptor 3 (S1P3). [Related pubchem assays: 1429, 485 ]; assay type: functional
[3] = Trypanosoma cruzi growth suppression in host cells – NIH3T3 host cells, beta-gal luminescence, confirmation (AID 2044); assay type: functional, cell-based;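 note: intracellular parasites grown in NIH/3T3 mouse fibroblasts as host cells; luminescent beta-galactosidase reporter signal from transgenic T. cruzi replicating inside host cells; inhibitors lower the luminescence signal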
[4] = target: 5-hydroxytryptamine receptor 1E (Homo sapiens, UniProt P28566); assay: Counterscreen assay for S1P3 antagonists: Dose response cell-based high throughput screening assay to identify antagonists of the 5-Hydroxytryptamine Receptor Subtype 1E (5HT1E). [Related pubchem assays: 1429, 485 ]; assay type: functional
[5] = target: Potassium voltage-gated channel subfamily KQT member 2 (Rattus norvegicus, UniProt O88943, W236L); assay: potentiation of rat KCNQ2 current – cell-based, automated electrophysiology, mechanism study for KCNQ2 potentiator project, dose response (AID 2603); assay type: functional
[6] = target: Induced myeloid leukemia cell differentiation protein Mcl-1 (Homo sapiens, UniProt Q07820); assay: blockers of MCL1 binding to BIM peptide – biochemical, fluorescence polarization, BIM-BH3 peptide, 1536-well, dose response (AID 2217)
[7] = target: T1, Carboxy-terminal domain RNA polymerase II polypeptide A small phosphatase 1 (Homo sapiens, UniProt Q9GZU7); assay: CTDSP1 inhibitors, concentration-response, biochemical, absorbance readout, ultra-high-throughput screen actives (AID 540297); assay type: functional
T1 sequence (Q9GZU7 whole entry): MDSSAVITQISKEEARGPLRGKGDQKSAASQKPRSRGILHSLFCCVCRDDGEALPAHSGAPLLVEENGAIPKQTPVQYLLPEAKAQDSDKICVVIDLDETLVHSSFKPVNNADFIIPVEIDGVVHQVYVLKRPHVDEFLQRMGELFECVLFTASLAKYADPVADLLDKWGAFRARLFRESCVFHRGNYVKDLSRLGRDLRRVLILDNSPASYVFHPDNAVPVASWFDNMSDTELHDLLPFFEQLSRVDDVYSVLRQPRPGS

[8] = target: T2, Microphthalmia-associated transcription factor (Homo sapiens, UniProt O75030); assay: reducers of TRPM1 reporter luminescence, concentration series – cell-based, SK-MEL-5, cherry-picked, set 3, MITF inhibitor project, dose response (AID 493073); assay type: functional;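 note: SK-MEL-5 melanoma cells with luciferase driven by the MITF target TRPM1 promoter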
T2 sequence (O75030 whole entry): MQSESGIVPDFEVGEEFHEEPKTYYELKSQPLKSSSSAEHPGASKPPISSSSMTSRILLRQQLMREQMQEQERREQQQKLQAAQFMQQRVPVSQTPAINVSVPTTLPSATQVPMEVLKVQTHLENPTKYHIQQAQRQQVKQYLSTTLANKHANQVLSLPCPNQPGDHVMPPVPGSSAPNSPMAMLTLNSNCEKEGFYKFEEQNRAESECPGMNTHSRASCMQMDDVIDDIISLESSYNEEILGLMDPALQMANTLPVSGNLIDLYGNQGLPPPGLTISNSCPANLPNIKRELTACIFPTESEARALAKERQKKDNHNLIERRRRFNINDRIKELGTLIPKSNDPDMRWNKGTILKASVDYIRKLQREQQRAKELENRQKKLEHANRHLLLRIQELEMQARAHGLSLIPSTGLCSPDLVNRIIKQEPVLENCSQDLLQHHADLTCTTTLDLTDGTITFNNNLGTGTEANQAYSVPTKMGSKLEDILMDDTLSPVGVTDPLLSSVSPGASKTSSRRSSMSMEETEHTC

Bcl-2-like protein 1 = Bcl-2-like protein 1 (Homo sapiens, UniProt Q07817); assay: blockers of BCLXL peptide binding – biochemical, fluorescence polarization, 1536-well, selectivity assay for MCL1 inhibitor project, dose response (AID 2218)
[9] = NIH-3T3 fibroblast cytotoxicity, dose response, cytotoxicity control, cell-based, fluorescence, Alamar Blue, secondary assay (AID 2327); assay type: functional;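 note: NIH-3T3 mouse fibroblasts cultured with fluconazole at 8 µg/mL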

Chain of Induced myeloid leukemia cell differentiation protein Mcl-1 (Q07820 whole entry, the tested form may be a part): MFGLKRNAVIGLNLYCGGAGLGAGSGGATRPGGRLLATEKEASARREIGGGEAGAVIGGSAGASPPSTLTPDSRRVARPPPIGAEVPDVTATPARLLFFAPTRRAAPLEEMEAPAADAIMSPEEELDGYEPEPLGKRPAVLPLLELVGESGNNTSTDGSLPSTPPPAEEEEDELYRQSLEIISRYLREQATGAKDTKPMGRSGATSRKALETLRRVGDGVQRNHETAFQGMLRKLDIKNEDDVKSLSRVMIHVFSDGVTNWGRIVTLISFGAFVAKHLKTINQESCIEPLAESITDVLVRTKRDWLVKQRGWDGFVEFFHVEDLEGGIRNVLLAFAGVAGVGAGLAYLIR
Chain of 5-hydroxytryptamine receptor 1E (P28566 whole entry): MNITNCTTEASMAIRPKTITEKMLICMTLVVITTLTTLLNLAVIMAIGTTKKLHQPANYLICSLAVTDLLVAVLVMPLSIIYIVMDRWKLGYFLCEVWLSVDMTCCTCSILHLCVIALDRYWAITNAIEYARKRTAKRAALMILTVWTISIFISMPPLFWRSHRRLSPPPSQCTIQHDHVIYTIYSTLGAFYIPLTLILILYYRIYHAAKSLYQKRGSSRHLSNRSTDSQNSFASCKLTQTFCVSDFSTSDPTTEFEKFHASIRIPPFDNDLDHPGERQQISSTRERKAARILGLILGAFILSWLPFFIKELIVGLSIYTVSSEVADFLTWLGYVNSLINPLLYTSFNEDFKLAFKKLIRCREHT
Chain of Bcl-2-like protein 1 (Q07817 whole entry): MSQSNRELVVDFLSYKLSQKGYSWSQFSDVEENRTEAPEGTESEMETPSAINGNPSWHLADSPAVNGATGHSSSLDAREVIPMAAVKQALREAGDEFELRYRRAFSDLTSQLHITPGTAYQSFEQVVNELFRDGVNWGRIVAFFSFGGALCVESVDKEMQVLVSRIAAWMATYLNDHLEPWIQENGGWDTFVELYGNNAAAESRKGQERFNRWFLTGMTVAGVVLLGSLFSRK
Chain of Potassium voltage-gated channel subfamily KQT member 2 (O88943 whole entry W236L): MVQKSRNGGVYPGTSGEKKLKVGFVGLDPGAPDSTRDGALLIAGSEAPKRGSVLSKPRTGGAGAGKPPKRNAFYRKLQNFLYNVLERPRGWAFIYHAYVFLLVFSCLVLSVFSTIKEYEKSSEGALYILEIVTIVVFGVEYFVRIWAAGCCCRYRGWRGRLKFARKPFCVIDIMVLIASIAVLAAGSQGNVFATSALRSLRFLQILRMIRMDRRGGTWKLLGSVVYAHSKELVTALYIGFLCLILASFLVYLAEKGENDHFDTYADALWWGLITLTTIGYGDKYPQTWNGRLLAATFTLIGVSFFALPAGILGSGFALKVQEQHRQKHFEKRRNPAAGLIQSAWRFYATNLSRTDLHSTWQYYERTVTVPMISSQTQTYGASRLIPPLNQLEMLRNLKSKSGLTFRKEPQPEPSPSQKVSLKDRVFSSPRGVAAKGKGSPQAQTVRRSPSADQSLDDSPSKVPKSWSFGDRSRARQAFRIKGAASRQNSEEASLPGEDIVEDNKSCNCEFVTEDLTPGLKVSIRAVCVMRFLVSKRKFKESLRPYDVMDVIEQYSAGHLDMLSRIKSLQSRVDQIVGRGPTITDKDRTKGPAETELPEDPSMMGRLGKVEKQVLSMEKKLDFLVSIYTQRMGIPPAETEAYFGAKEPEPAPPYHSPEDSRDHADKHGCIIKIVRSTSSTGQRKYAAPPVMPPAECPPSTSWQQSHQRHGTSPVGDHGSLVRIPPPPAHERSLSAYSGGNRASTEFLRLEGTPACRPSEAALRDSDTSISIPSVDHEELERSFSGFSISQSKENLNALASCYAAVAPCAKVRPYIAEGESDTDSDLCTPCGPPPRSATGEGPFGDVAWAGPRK
Chain of Sphingosine 1-phosphate receptor 3 (Q99500 whole entry): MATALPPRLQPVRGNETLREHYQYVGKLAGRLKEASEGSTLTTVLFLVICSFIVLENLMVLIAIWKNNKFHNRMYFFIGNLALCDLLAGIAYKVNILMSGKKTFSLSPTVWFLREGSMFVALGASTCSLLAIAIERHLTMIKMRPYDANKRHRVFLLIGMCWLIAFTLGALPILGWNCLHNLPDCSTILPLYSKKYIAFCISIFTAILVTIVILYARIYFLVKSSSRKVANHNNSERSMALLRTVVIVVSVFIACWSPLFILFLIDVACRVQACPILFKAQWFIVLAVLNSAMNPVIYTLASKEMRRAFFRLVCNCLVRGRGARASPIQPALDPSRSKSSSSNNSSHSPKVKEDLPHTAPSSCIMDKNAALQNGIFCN

SMILES	EC50 [1]	IC50 [2]	EC50 [3]	IC50 [4]	EC50 [5]	IC50 [6]	IC50 [7]	AC50 [8]	IC50 (Bcl-2-like protein 1)	EC50 [9]
O=C(Nc1ccc2ccccc2c1)C(c1ccccc1)C1CCCC1 (configuration not stated)	> 30 µM (not active)	2.1 µM (active)	2.42 µM (active)	1.85 µM (active)	–	–	–	–	–	–
CC1=C(C(=O)OC2CCCCCCC2)C(c2cccc(O)c2)NC(=O)N1 (configuration not stated)	–	–	–	–	537 µM (active)	–	–	–	–	–
Cc1nc2ccccn2c1C(=O)N/N=C/c1ccc([N+](=O)[O-])o1	10.9 µM (active)	–	0.139 µM (active)	–	–	13.2 µM (not active)	5.79 µM (active)	8.03 µM (active)	55.2 µM (not active)	> 160 µM (inactive)
